For eleven molecules, EC50 and Ki results are on record in US7094909B2, “HIV protease inhibitors, compositions containing the same, their pharmaceutical uses and materials for their synthesis” (priority 2001, dated 2006).

Read-outs that look alike come from different tables or passages of the source. A value given as a limit tells only on which side of the number the result lay.

The subject of assay [1] is HIV-1 (HIV-1 RF, HIV-1 NL4-3) in CEM-SS / MT-2 cells. As to the kind of experiment: Cytopathic effect (CPE) inhibition assay (XTT/MTT dye reduction). In kind it is cell-based. As to the method:
T-cell lines, CEM-SS, and MT-2, and viruses HIV-1 RF and HIV-1 NL4-3 (pNL4-3) were obtained from the National Institutes of Health (AIDS Research and Reference Reagent Program, Bethesda, Md.).
Cytopathic Effect (CPE) Inhibition Assays
The ability of compounds to protect cells against HIV infection was measured by the […] dye reduction method, essentially as described (See Pauwels, R. Balzarini, J. Baba, M. Snoeck, R. Schols, D. Herdewijn, P. Desmyter, J. and De Clercq, E. 1988, “Rapid and automated tetrazolium-based colorimetric assay for the detection of anti-HIV compounds,”. J Virol. Methods., 20: 309–321 and Weislow, O. S. Kiser, R. Fine, D. L. Bader, J. Shoemaker, R. H. and Boyd, M. R. 1989. “New soluble-formazan assay for HIV-1 cytopathic effects: application to high-flux screening of synthetic and natural products for AIDS-antiviral activity”. J. Natl. Cancer Inst. 81:577–586). Subject cells were infected with test virus at an moi of 0.025 to 0.819 or mock infected with medium only and added at 2×10^4 cells per well into 96 well plates containing half-log dilutions of test compounds. Six days later, 50 μl of XTT (1 mg/ml XTT tetrazolium, 0.02 nM phenazine methosulfate) was added to the wells and the plate was reincubated for four hours. Viability, as determined by the amount of XTT formazan produced, was quantified spectrophotometrically by absorbance at 450 nm. Data from CPE assays were expressed as the percent of formazan produced in compound-treated cells compared to formazan produced in wells of uninfected, compound-free cells. The fifty percent effective concentration (EC50) was calculated as the concentration of compound that effected an increase in the percentage of formazan production in infected, compound-treated cells to 50% of that produced by uninfected, compound-free cells. The 50% cytotoxicity concentration (CC50) was calculated as the concentration of compound that decreased the percentage of formazan produced in uninfected, compound-treated cells to 50% of that produced in uninfected, compound-free cells. The therapeutic index was calculated by dividing the cytotoxicity (CC50) by the antiviral activity (EC50).
For orientation: Protection from cytopathic effect is a common read-out in antiviral testing.

The target in assay [2] is T1, HIV-1 protease (Q7S mutant form) (Human immunodeficiency virus type 1 group M subtype B, UniProt P04585, Q495S).
T1 construct: made in house
As to the kind of experiment: HIV-1 Protease RET assay. In kind it is biochemical. The method, boiled down:
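Q7S HIV-1 protease, refolded from urea, 2 nM active dimer with 5 μM EDANS/DABCYL peptide cleaved at Tyr-Pro; fluorescence 340/490 nm. 12 min at 37 °C in 0.1M sodium acetate pH 4.8, 1M NaCl, 10% DMSO. Ki from Morrison tight-binding fit.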

Where [3] appears, read: Human immunodeficiency virus 1, NL43, read-out: Ave CPE EC50.
The mark [4] stands for this setting: Ave. Ki (nM), RET assay, Q7S enzyme, Morrison tight binding fit.
[5] abbreviates: Human immunodeficiency virus 1, NL43, unit inferred, read-out: EC50.

One may read the EC50 as the midpoint of the concentration-response curve. As a reminder, the Ki is the dissociation constant of the complex between target and ligand, obtained from inhibition or displacement. As for `Cc1c(O)cccc1C(=O)N[C@@H](Cc1ccccc1)[C@H](O)C(=O)N1CSC(C)(C)[C@H]1C(=O)NC1CCC1` [Example A26, (R)-3-((2S,3S)-2-Hydroxy-3-{[1-(3-hydroxy-2-methyl-phenyl)-methanoyl]-amino}-4-phenyl-butanoyl)-5,5-dimethyl-thiazolidine-4-carboxylic acid cyclobutylamide], in assay [1] (setting [3]), the EC50 is 168 nM. In assay [2] (setting [4]), this molecule gave a Ki of 0.6 nM.
As for `Cc1ccccc1CNC(=O)C1N(C(=O)[C@@H](O)[C@H](CSc2ccccc2)NC(=O)c2cccc(O)c2C)CSC1(C)C` (some centres unmarked) [drawing 969], in assay [1] (unit inferred, read-out: EC50), the EC50 came out at 879 nM. The affinity in assay [2] (Ki, unit inferred) corresponds to a Ki of 0.25 nM.
Regarding `Cc1c(O)cccc1C(=O)N[C@@H](Cc1ccccc1)[C@H](O)C(=O)N1CSC(C)(C)[C@H]1C(=O)NCc1cc2ccccc2n1C` [Example A63, (R)-3-[(2S,3S)-2-Hydroxy-3-(3-hydroxy-2-methyl-benzoylamino)-4-phenyl-butyryl]-5,5-dimethyl-thiazolidine-4-carboxylic acid (1-methyl-1H-indol-2-ylmethyl)-amide], the 50% effective concentration (EC50) in assay [1] (setting [3]) stood at 1190 nM. In assay [2] (setting [4]), this molecule registered a Ki of 4.5 nM.
With `Cc1ccccc1CNC(=O)[C@H]1N(C(=O)[C@@H](O)[C@H](Cc2ccccc2)NC(=O)[C@@H](NC(=O)COc2cccc(N(C)C)c2)C(C)C)CSC1(C)C`, in assay [1] (setting [5]), the EC50 worked out at 14 nM. Also, in assay [2] (Ki, unit inferred), the Ki is ≤ 0.1 nM.
In the case of `Cc1ccccc1CNC(=O)[C@H]1N(C(=O)[C@@H](O)[C@H](Cc2ccccc2)NC(=O)OCCCl)CSC1(C)C`, the EC50 in assay [1] (setting [5]) worked out at 1430 nM. The same molecule displayed an inhibition constant Ki in assay [2] (Ki, unit inferred) of 0.44 nM.
As for `Cc1c(O)cccc1C(=O)N[C@@H](Cc1ccccc1)[C@H](O)C(=O)N1CSC(C)(C)[C@H]1C(=O)NCc1cc2ccccc2o1` [Example A62, (R)-3-[(2S,3S)-2-Hydroxy-3-(3-hydroxy-2-methyl-benzoylamino)-4-phenyl-butyryl]-5,5-dimethyl-thiazolidine-4-carboxylic acid (benzofuran-2-ylmethyl)-amide], the EC50 in assay [1] (setting [3]) was determined as 2260 nM. The molecule further yielded a Ki in assay [2] (setting [4]) of 9.6 nM.
With `Cc1ccccc1CNC(=O)[C@@H]1C(C(=O)[C@@H](O)[C@H](Cc2ccccc2)NC(=O)c2cccc(O)c2C)[C@@H]2CC[C@@H]1C2` (some centres unmarked), the concentration giving a half-maximal response (EC50) in assay [1] (setting [5]) is ≥ 10000 nM.
For `Cc1ccccc1CNC(=O)[C@H]1C(C(=O)[C@@H](O)[C@H](Cc2ccccc2)NC(=O)c2cccc(O)c2C)[C@@H]2CC[C@@H]1C2` (some centres unmarked), the concentration giving a half-maximal response (EC50) in assay [1] (setting [5]) is ≥ 10000 nM.
Consider `C=CCNC(=O)C1N(C(=O)[C@@H](O)[C@H](Cc2cccc(F)c2)NC(=O)c2cccc(O)c2C)CC(F)(F)C1(C)C` (stereo partly drawn) [Example D2, (R)-3-((2S,3R)-4,4-Difluoro-1-[4(3-fluoro-phenyl)-2-hydroxy-3-(3-hydroxy-2-methyl-benzoylamino)-butyryl])-3,3-dimethyl-pyrrolidine-2-carboxylic acid allyiamide], for which the EC50 in assay [1] (setting [3]) amounted to 16 nM.
Take `Cc1cc(O)c(C)c(C(=O)N[C@@H](Cc2ccccc2)[C@H](O)C(=O)N2CC(F)(F)C(C)(C)[C@H]2C(=O)NCC(F)(F)F)c1` [Example D6, (S)-4,4-Difluoro-1-[(2S,3S)-2-hydroxy-3-(3-hydroxy-2,5-dimethyl-benzoylamino)-4-phenyl-butyryl]-3,3-dimethyl-pyrrolidine-2-carboxylic acid (2,2,2-trifluoro-ethyl)-amide]: the half-maximal effective concentration (EC50) in assay [1] (setting [3]) amounted to 18 nM.
With `Cc1c(O)cccc1C(=O)N[C@@H](Cc1cccc(F)c1)[C@H](O)C(=O)N1CC(F)(F)C(C)(C)[C@H]1C(=O)NCC(C)C` [Example D3, (S)-4,4-Difluoro-1-[(2S,3S)-4-(3-fluoro-phenyl)-2-hydroxy-3-(3-hydroxy-2-methyl-benzoylamino)-butyryl]-3,3-dimethyl-pyrrolidine-2-carboxylic acid is butyl-amide], the 50% effective concentration (EC50) in assay [1] (setting [3]) came out at 13 nM.
